# Where two headings read alike, the source gives them in different places.
# Legend:
# [1] = First-in-human Phase 1 trial (SAD/MAD), safety; format: in vivo
# Procedure: The adverse event profile was favorable compared to placebo: A total of 6 (9.4%) subjects receiving the test compound had treatment emergent adverse events, compared to 4 (19.1%) subjects who received placebo. […] No changes in serum glucose were observed. […] There were no subjects who had QTcF >500 msec or a change of >60 msec from baseline. […] Three of these five subjects were in the SAD portion of the study (one each in the 100 mg, 200 mg, and 700 mg dose cohorts) and the remaining two subjects were in the MAD portion of the study (one each in the 150 mg BID and 300 mg BID dose cohorts).
# Clinical development of compound I-1 in inflammatory disease is supported by safety testing in human healthy volunteers in single and multiple ascending dose (10 day), placebo-controlled Phase I trials.
# [2] = system: large panel of ligand binding assays, ion channel assays, transporter assays, and enzyme inhibition studies; experiment: Secondary pharmacology studies (ligand binding, ion channel, transporter, enzyme inhibition panel)
# Procedure: I-1 plasma concentrations are projected to have reached at least 10 μM, exceeding reported levels of RASP in humans with inflammatory diseases. The data support the potential of I-1, and RASP inhibition in general, in treating inflammation and fibrosis.
# [3] = system: human precision cut liver slices (PCLS); experiment: Alcoholic liver injury model in precision-cut liver slices (PCLS); format: cell-based
# Description: Alcohol abuse results in liver injury, including accumulation of RASP and an increase in inflammation. It is known to cause abnormalities in liver structure and function, including fatty liver, apoptosis, necrosis, fibrosis, and cirrhosis. In order to investigate the utility of the quinoline compounds described herein for reduction of RASP and/or treating liver and associated inflammatory disorders, we employed a known in vitro culture model that employs precision-cut liver slices (PCLS) to measure alcohol-induced liver injury. For this experiment, we used a liver sample donated from a […] with fibrosis. This experiment may also be performed on rat PCLS (procedure provided below). The model is described, for example in Klassen, L. W. et al., Biochemical Pharmacology 76 (2008), 426-436. In this model, PCLS retains excellent viability as determined by lactate dehydrogenase and adenosine triphosphate (ATP) levels over a 96-h period of incubation. The major enzymes of ethanol detoxification (alcohol dehydrogenase, aldehyde dehydrogenase, and cytochrome P4502E1), remain active and PCLS readily metabolizes ethanol and produces acetaldehyde. […] These PCLS secrete albumin, and albumin secretion was decreased by ethanol treatment. All of these impairments are reversed following the addition of 4-methylpyrazole, which is an inhibitor of ethanol metabolism. Therefore, this model system appears to mimic the ethanol-induced changes in the liver that have been previously reported in human and animal studies, and appears to be a useful model for the study of alcoholic liver disease.
# Materials and Methods. For human PCLS studies, slices were cut as described below and incubated with conditions below for 24, 48, or 72 hours. Media were changed daily. • Control Media • 25 mM Ethanol Media. • Control Media+10 μM compound I-1 (7 μl of the 5 mg/ml I-1 solution in 1.7 ml) • Ethanol Media+10 μM compound I-1
# Incubation of slices with ethanol is performed as follows. Following pre-incubation with WE, slices are incubated with media only (control), media+25 mM ethanol (ethanol), media+25 mM ethanol+0.50 mM 4-methylpyrazole as an optional positive control (ethanol +4-MP), media+0.50 mM 4-methylpyrazole (control+4-MP), control media+test compound, or ethanol media+test compound. The addition of 4-MP may be used in these studies as it is a general inhibitor of ethanol metabolism. The slices are placed in the Dynamic Organ Culture incubator and cultured at 37 C for up to 96 h, and every 24 h the appropriate media is replenished. In order to determine the concentration of ethanol and acetaldehyde in the media, the supernatant is analyzed using headspace gas chromatography.
# Viability assays are performed as follows. Slice viability is determined by measuring adenosine triphosphate (ATP) and lactate dehydrogenase (LDH) levels. For the ATP assay, slices are harvested at the appropriate times, placed into 70% ethanol/2 mM EDTA, flash frozen, and stored at −70 C until assayed. Samples are thawed on ice, sonicated, and diluted in 0.1 M Tris-HCl/2 mM EDTA prior to use in a standard ATP assay kit.
# For LDH determination, supernatant is collected and frozen at −70 C. The slice is solubilized in WE containing 2% Triton X-100 and LDH determined using a cytotoxicity detection kit (LDH) (e.g., available from Roche Applied Science, Penzberg, Germany). The absorbance of the samples is measured at 490 nm. All protein concentrations from the slices are determined using a BCA protein assay kit. To calculate the % Cytotoxicity at subsequent 24 h time points, the LDH in the media is divided by the total LDH in the PCLS and multiplied by 100.
# Triglyceride analysis is performed as follows. At indicated time points, supernatant is removed and slices are washed in PBS (pH 7.4). Slices are placed in PBS containing 0.5% Triton-X100, sonicated, and the equivalent of […] of protein assayed for triglycerides using the serum triglyceride kit. […]
# [4] = system: free MDA; experiment: Phase 1 trial, plasma biomarkers in healthy volunteers; format: in vivo, human; details: vs placebo
# [5] = Phase 1 trial, pharmacokinetics in healthy volunteers; format: in vivo, human; details: for Cmax / AUC / half-life: human, in vivo; for AUC: read-out: 0 to 12 hour area under the curve (AUCtau)
# Procedure: Healthy volunteers were dosed with 600 mg of compound I-1 BID for 10 days in the top (highest) dose cohort. […] The 0 to 12 hour area under the curve (AUCtau) was 5710 h*ng/mL (61.5% CV) on Day 1 and 6,800 h*ng/mL (37.9% CV) on Day 10.
# [6] = system: delayed rectifier potassium current; experiment: In vitro inhibition of the delayed rectifier potassium current; format: cell-based
# [7] = after high-fat meal on Day 10, 600 mg BID
smiles,measurement,setting,value
CC(C)(O)c1nc2ccccc2cc1N [I-1],overall safety and tolerability,"[1]; Phase 1 SAD and MAD (10 day), up to 600 mg BID",safe and tolerable
same,subjects with QTcF change of >30 msec from baseline,"[1]; SAD 100, 200, 700 mg, MAD 150 mg BID, 300 mg BID cohorts",Five
same,QTcF prolongation,[1]; in vivo,did not lead to QTcF prolongation
same,"changes in heart rate, blood pressure, respiratory rate, pulse oximetry, or temperature",[1]; in vivo,No clinically meaningful changes
same,"changes in hepatic or renal analytes (ALT, AST, ALP, amylase, GGT, bilirubin, creatinine kinase, creatinine)",[1]; in vivo,No clinically meaningful changes
same,changes in serum glucose,[1]; in vivo,No changes
same,hematological changes,[1]; in vivo,No clinically significant hematological changes
same,interruptions or discontinuations of study drug administration,[1]; in vivo,no interruptions or discontinuations
same,subjects with QTcF >500 msec or a change of >60 msec from baseline,[1]; in vivo,no subjects
same,subjects with treatment emergent adverse events,"[1]; subjects receiving the test compound, number (%)",6 (9.4%) subjects
same,risk of off-target effects,[2],low risk of off-target effects
same,overall effect on cellular stress and toxicity in response to ethanol,[3],acts as a chemoprotectant to reduce cellular stress and toxicity
same,triglyceride levels,"[3]; 10 μM I-1 + 25 mM ethanol, 24, 48, 72 h",significantly decreased
same,acetaldehyde levels,"[3]; 10 μM I-1, 24, 48, 72 h",appear to be decreased
same,ATP levels,"[3]; 10 μM I-1, 24 and 48 hours",remain constant
same,ATP levels,"[3]; 10 μM I-1, 72 hours",increase
same,cytotoxicity (LDH) levels,[3]; ethanol treated + 10 μM I-1,continued to drop
same,free MDA levels in plasma,[4]; 600 mg BID over 10 days,decrease in free MDA levels was observed
same,levels of HDL,[4]; [7],statistically higher
same,levels of free fatty acids,[4]; [7],statistically lower
same,accumulation of the drug,[5]; across all cohorts,Little to no accumulation
same,correlation of Cmax and AUC with dose,[5]; as dose increased,linear correlation
same,increase in clearance,[5]; between Day 1 and Day 10,no significant increase in clearance
same,Cmax,"[5]; 600 mg, 600 mg BID, Day 1",1920 ng/mL
same,AUC,"[5]; 600 mg, 600 mg BID, Day 1",5710 ng·h/mL
same,half-life,"[5]; 600 mg, 600 mg BID, Day 1, read-out: half-life (converted)",3.98 h
same,Cmax,"[5]; 600 mg, 600 mg BID, Day 10",1460 ng/mL
same,AUC,"[5]; 600 mg, 600 mg BID, Day 10",6800 ng·h/mL
same,half-life,"[5]; 600 mg, 600 mg BID, Day 10, read-out: half-life (converted)",4.56 h
same,half-life,"[5]; multiple day exposures, across cohorts, read-out: half-life (t1/2), mean values",3.07 to 6.2 h
same,cyp autoinduction,[5]; over the course of 10 days,no cyp autoinduction was observed
same,potential to inhibit the delayed rectifier potassium current,[6],very low potential

# — patent US20230149383A1, “QUINOLINE COMPOUNDS FOR TREATING LUNG, LIVER, AND KIDNEY DISEASES, DISORDERS, OR CONDITIONS” (Aldeyra Therapeutics, Inc., priority 2020, published 2023)
